Results from article PMC10840383, “Clinical features, functional consequences, and rescue pharmacology of missense GRID1 and GRID2 human variants” (Human Molecular Genetics, 2023).
Positions count from the first letter of the chain named.

Assays:
Type in all cases: cell-based
Details in all cases: positive = increase, negative = decrease of activity
GluD2-D535E = molecular target: T1, GluD2-D535E (Rattus norvegicus, UniProt Q63226, D535E); assay: TEVC of constitutive current, Xenopus oocytes expressing GluD2-D535E
T1 construct: expressed in transfected cells; host or cells: Xenopus laevis oocytes injected with cRNA
T1 sequence (Q63226 24-1007 D535E): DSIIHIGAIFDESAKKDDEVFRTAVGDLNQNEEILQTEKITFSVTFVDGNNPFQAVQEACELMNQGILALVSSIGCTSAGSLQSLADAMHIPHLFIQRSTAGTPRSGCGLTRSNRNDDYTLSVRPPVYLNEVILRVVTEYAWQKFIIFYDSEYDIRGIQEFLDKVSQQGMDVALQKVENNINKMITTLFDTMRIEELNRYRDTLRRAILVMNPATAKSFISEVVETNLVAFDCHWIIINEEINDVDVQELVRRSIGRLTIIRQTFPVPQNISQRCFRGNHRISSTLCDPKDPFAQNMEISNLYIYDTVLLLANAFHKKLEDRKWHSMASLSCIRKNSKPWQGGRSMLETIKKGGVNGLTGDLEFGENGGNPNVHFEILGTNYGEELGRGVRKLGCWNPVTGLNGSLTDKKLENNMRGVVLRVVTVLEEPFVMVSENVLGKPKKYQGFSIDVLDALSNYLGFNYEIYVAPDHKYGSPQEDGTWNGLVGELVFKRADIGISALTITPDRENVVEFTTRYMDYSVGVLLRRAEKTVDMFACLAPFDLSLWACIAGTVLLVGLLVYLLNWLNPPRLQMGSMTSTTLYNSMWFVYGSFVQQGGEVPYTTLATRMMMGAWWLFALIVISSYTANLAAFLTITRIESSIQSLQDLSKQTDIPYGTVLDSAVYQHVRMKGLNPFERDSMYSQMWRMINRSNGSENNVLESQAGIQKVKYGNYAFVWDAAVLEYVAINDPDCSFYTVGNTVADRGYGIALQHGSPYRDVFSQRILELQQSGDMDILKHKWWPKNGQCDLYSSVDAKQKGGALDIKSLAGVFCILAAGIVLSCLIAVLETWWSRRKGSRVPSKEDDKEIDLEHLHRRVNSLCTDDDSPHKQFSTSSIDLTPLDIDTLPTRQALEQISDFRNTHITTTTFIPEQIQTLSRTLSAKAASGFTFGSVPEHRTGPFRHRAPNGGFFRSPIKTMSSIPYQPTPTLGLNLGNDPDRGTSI

GluD1-WT = molecular target: T2, GluD1-WT (Homo sapiens, UniProt Q9ULK0); assay: TEVC of constitutive current, Xenopus oocytes expressing GluD1-WT
T2 construct: expressed in transfected cells; host or cells: Xenopus laevis oocytes injected with cRNA
T2 sequence (Q9ULK0 21-1009): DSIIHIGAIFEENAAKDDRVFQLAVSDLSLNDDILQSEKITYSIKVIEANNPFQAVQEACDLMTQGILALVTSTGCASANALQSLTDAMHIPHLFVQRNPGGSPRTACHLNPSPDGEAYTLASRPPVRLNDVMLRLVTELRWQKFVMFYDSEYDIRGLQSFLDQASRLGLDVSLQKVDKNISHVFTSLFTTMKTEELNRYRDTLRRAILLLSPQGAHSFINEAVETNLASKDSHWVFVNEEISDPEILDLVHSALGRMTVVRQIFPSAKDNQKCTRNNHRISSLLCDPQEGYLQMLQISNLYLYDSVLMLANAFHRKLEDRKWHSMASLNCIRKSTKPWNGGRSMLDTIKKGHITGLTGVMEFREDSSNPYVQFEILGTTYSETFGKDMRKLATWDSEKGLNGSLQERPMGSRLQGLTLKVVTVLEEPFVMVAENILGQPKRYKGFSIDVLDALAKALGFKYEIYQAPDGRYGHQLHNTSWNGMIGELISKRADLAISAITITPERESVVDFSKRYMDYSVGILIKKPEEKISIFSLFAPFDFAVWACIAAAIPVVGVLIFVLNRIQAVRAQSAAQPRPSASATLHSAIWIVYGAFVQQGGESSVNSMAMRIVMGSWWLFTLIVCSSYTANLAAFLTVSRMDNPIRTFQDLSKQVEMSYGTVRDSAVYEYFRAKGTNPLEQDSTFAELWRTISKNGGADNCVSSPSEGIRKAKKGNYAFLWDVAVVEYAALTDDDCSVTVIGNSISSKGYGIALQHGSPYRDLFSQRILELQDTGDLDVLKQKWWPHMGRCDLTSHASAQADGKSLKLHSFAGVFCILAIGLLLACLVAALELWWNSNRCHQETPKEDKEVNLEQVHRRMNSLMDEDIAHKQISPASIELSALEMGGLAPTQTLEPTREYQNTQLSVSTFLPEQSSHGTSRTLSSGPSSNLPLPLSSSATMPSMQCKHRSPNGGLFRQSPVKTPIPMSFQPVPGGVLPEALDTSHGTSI

GluD2-R710W = molecular target: T3, GluD2-R710W (Rattus norvegicus, UniProt Q63226, R710W); assay: TEVC of constitutive current, Xenopus oocytes expressing GluD2-R710W
T3 construct: expressed in transfected cells; host or cells: Xenopus laevis oocytes injected with cRNA
T3 sequence (Q63226 24-1007 R710W): T1 sequence (Q63226 24-1007 D535E) with E512D, R687W

SMILES: N[C@H](CO)C(=O)O [D-serine]
- D-Serine effect (Baseline −10 mM D-Serine) (GluD2-D535E; 10 mM D-serine): −5.8 ± 2.4 (12) nA
- D-Serine effect (Baseline −10 mM D-Serine) (GluD1-WT; 10 mM D-serine): 2.3 ± 2.9 (13) nA
- D-Serine effect (Baseline −10 mM D-Serine) (GluD2-R710W; 10 mM D-serine): −2.3 ± 0.60 (11) nA

SMILES: N=C(N)c1ccc(OCCCCCOc2ccc(C(=N)N)cc2)cc1 [Pentamidine, pentamidine]
- Pentamidine effect (Baseline −100 μM Pentamidine) (GluD2-D535E; 100 μM pentamidine): −0.67 ± 1.1 (12) nA
- Pentamidine effect (Baseline −100 μM Pentamidine) (GluD1-WT; 100 μM pentamidine): 37 ± 11 (14) nA
- Pentamidine effect (Baseline −100 μM Pentamidine) (GluD2-R710W; 100 μM pentamidine): 0.82 ± 1.9 (11) nA
